In patent publication US20060025419A1, “Imidazoquinoxaline compound for the treatment of melanoma” (priority 2004, published 2006):

Columns and labels:
CXCL1 = CXCL1 ELISA of serum of mice bearing melanoma tumors; type: in vivo
Method: FIGS. 2A-2D. […] SK-Mel-5 cells were plated in 6-well plates (1.5×10^5 cells per well) and then cotransfected with 1 μg of HIV long terminal repeat NF-κB-luciferase vector and β-galactosidase vector DNA using Lipofectamine Plus reagent. Twenty-four hours after transfection, cells in duplicate plates were treated with 0, 0.1, 1 and 10 μM of BMS-345541in DMSO and incubated for an additional 36 h. Cell extract was prepared and luciferase activity was detected. Luciferase activity was normalized to β-galactosidase activity. […] ATP. The [γ-^32P]-labeled IκBα protein was visualized by autoradiography. […] The supernatants from B were cleared by centrifugation, or (FIG. 2D) sera were collected from mice, and subjected to ELISA assay for CXCL1 according to the manufacture's protocol. Data shown are from a representative data set from two experiments performed in duplicate (total n=4 for each point). For ELISA; the mean value is representative of serum samples from five mice.
To quantify the CXCL1 expression levels in vivo and in vitro, serum was collected at the end of the experiments from mice bearing SK-Mel-5 melanoma tumors or from the cleared supernatants of melanoma cell culture medium. Briefly, 1.5×10^5 of SK-Mel-5 cells/well were seeded in six-well plates in duplicate in DMEM/F12 medium containing 10% FBS.

SK-Mel-5 cells [1] = experiment: Nuclear apoptosis (DNA fragmentation) by flow cytometry; type: cell-based, human; details: for rate of apoptotic cells: 10 μM, 24 h
Method: FIGS. 4A-4H. […] Paraffin-embedded tumor tissues were subjected to H&E staining (FIGS. 4C & D) and DeadEnd Fluorometric TUNEL-assay for detection of apoptosis (FIGS. 4E & F). The TUNEL-positive cells are visualized in green fluorescence in a red (Propidium Iodide) background by fluorescence microscopy. […] After 36 h incubation, cells were collected and fixed with 1% formaldehyde and 70% ice-cold ethanol. The apoptotic cells were examined using TUNEL-assay and analyzed by flow cytometry through measuring fluorescein-12-dUTP at 520 nm. The apoptotic rate is indicated in each box. Data shown are represented one of three independent experiments. […] Cells were fixed and stained with Propidium iodide. Cell fluorescence was measured by flow cytometry and the data were analyzed using DNA content histogram deconvolution software (Multicycle from Phoenix Flow Systems). The percentage of apoptotic cells with fragmented DNA (PI intensity sub-G0/G1) is indicated at each time point. The experiments were repeated twice, in duplicates for each point (total n=4).

SK-Mel-5 cells [2] = experiment: Mitochondrial membrane potential (Δψm), DiOC6 and FACS; type: cell-based, human; details: SK-Mel-5, 10 μM
Method: (§1) FIGS. 5A-5E. […] (FIG. 5A) Redistribution of Bcl-2 and Bax in mitochondria. […] Subcellular mitochondria and cytoplasm were prepared and subjected to Western blot analysis for Bcl-2 and Bax. (FIG. 5B) Dissipation of mitochondrial Δψm. […] After exposure, mitochondria were isolated and incubated with 80 μM 3,3′dihexyloxacarbocyanine iodide (DiOC6) at 37° C. for 15 min. Δψm was determined by FACS analysis using 484/530 nm filters within 10 min while gating the forward and sideward scatters on intact mitochondria (FIG. 5C). (FIG. 5D) Release of cytochrome-C and AIF. […] Subcellular extracts were prepared and subjected to Western blot analysis for cytochrome-C and AIF. […] The supernatant was assessed for cytochrome-c release. […]
For quantification of cell death, DNA content was analyzed on a FACScan (Becton Dickinson, San Jose, Calif.). […] Cell fluorescence was measured by flow cytometry with 488 nm excitation and 620 nm emission filters and data were analyzed using DNA content histogram deconvolution software (Multicycle, Phoenix Flow Systems). […] ROS were determined by FACS analysis with 488 nm excitation and 585 emission filters.
Mitochondria play a crucial role in the regulation of programmed cell death (Zamzami et al., 1995a; 1995b; 1996a; 1996b). […] The change in mitochondrial membrane potential (Δψm) was determined by FACS analysis after the mitochondria were stained with DiOC6.

[3] = test system: mitochondria isolated from SK-Mel-5; experiment: Cytochrome-c release from isolated mitochondria; parameters: species or system human; details: 10 μM, 4° C., 30 min
Method: as §1
The Mitochondria Isolation Kit (Pierce, Rockford, Ill.) was used for isolation of mitochondria from cultured melanoma cells according to the manufacture's instruction for the Reagent-based method. […] The purity of mitochondria was determined by Western blotting with β-actin, where β-actin negative preparation were fully to be pure. […]
Mitochondria play a crucial role in the regulation of programmed cell death (Zamzami et al., 1995a; 1995b; 1996a; 1996b). […] To investigate alteration of the apoptotic proteins in mitochondria during BMS-345541-induced apoptosis, the ratio of Bcl-2 and Bax distributed in mitochondria was analyzed in SK-Mel-5 cells using Western blot. […]

`Cc1ccc2nc(NCCN)c3ncc(C)n3c2c1.Cl` [BMS-345541, 4(2′-aminoethyl)amino-1,8-dimethylimidazo(1,2-a)quinoxaline] was tested, and the “CXCL1 expression in mouse sera” value (CXCL1) was “suppressed in a concentration-dependent manner”, the “rate of apoptotic cells” value (SK-Mel-5 cells [1]; AIF siRNA-transfected cells) was 10.3±3.8% and the “rate of apoptotic cells” value (SK-Mel-5 cells [1]; control siRNA-transfected cells) was 24.3±6.8%. For the same compound, the “induction of DNA fragmentation” value (SK-Mel-5 cells [1]; SK-Mel-5, 10 μM, 0-48 h (FIG. 4H)) was “time-dependent”, the “loss of mitochondrial membrane potential” value (SK-Mel-5 cells [2]; 24 h) was 16±1.5% and the “loss of mitochondrial membrane potential” value (SK-Mel-5 cells [2]; 48 h) was 87±5.4%. For the same compound, the “direct action on isolated mitochondria (cytochrome-c release into supernatant)” value [3] was “no direct action”.
